Laboratory results reported in patent US12065494B2, “Combination therapy comprising an FGFR inhibitor and a Nectin-4 targeting agent” (Incyte Corporation, priority 2021, dated 2024).

Columns and labels:
[1] = test system: ERK; assay: RT112/84 in vivo pERK inhibition (tumor lysates, MSD); conditions: RT112/84 tumor bearing NSG mice; pemigatinib 1 mg/kg oral, EV 3 mg/kg intravenous; tumors collected 4 h post dose
Method: Tumors were then processed and levels of phospho ERK were assessed on tumor lysates by MSD (Mesoscale).

[2] = test system: RT112/84 bladder cancer xenograft model; assay: RT112/84 xenograft model, tumor growth (6 groups); assay type: in vivo, mice
Method: The in vivo effect of combining pemigatinib plus EV (Padcev, Refdrug Inc.) was assessed in the RT112/84 bladder cancer (85061106, Sigma/ECACC, UK) xenograft model (FIG. 4) in 6 to 8 weeks old NSG mice (Jackson laboratories). Pemigatinib was suspended in 5% N,N-dimethyl acetamide (DMAC)+50 mM Citrate buffer in 0.5% methyl cellulose for oral administration and EV was suspended in saline for intravenous administration. Briefly, the left flank of the mice were shaved the day prior to subcutaneous inoculation with 2×10^6 RT112/84 suspended in matrigel (Corning Life Sciences, Tewksbury, Mass.). On day 7, tumor dimensions were measured by Vernier calipers, and volume estimated by the formula Volume=[L (long dimension)×W2 (short dimension)]/2. Mice were randomized into 6 groups of 10 mice of approximate mean volume (˜200 mm^3). Tumors were measured 3 times per week for the duration of the study. Starting day 7, mice were dosed with (i) vehicle; (ii) 0.3 mg/kg of pemigatinib; (iii) 1 mg/kg of pemigatinib; (iv) 3 mg/kg of EV; (v) 0.3 mg/kg of pemigatinib and 3 mg/kg of EV; or (vi) 1 mg/kg of pemigatinib and 3 mg/kg of EV. Pemigatinib was administered orally once daily (QD) for 10 days, while EV was dosed every 4 days (for a total of 2 doses).

[3] = test system: UM-UC-14 cancer xenograft model; assay: UM-UC-14 xenograft model, tumor growth; assay type: in vivo, mice; conditions: single agent
[4] = test system: Nectin-4; assay: RT112/84 in vivo Nectin-4 receptor density (xenograft, flow cytometry); conditions: RT112/84 tumor bearing NSG mice; pemigatinib 0.3 or 1 mg/kg oral, EV 3 mg/kg intravenous; tumors collected 4 h post dose
Method: The effect of combining pemigatinib plus EV (Padcev, Refdrug Inc.) on Nectin-4 receptor density was also assessed in vivo in the RT112/84 bladder cancer xenograft model (FIG. 2B) in 6 to 8 weeks old NSG mice (Jackson laboratories). Pemigatinib was suspended in 5% N,N-dimethyl acetamide (DMAC)+50 mM Citrate buffer in 0.5% methyl cellulose for oral administration and EV was suspended in saline for intravenous administration. Briefly, the left flanks of the mice were shaved the day prior to subcutaneous inoculation with 2×10^6 RT112/84 suspended in matrigel (Corning Life Sciences, Tewksbury, Mass.). On day 16, mice were dosed with (i) vehicle; (ii) 0.3 mg/kg of pemigatinib; (iii) 1 mg/kg of pemigatinib; (iv) 3 mg/kg of EV; (v) 0.3 mg/kg of pemigatinib and 3 mg/kg of EV; or (vi) 1 mg/kg of pemigatinib and 3 mg/kg of EV, and tumors were collected 4 h post dose.

[5] = test system: Nectin-4; assay: RT112/84 in vitro Nectin-4 receptor density (flow cytometry); assay type: cell-based; conditions: RT112/84 cells; 100 nM pemigatinib, 100 nM EV or both; different time points after treatment
Method: The effect of combining pemigatinib plus enfortumab vedotin (“EV”) (Padcev, Refdrug Inc.) on Nectin-4 receptor density was assessed in vitro in the RT112/84 bladder cancer cell line. Briefly, RT112/84 cells were treated with either 100 nM pemigatinib, 100 nM EV, or the combination of both. The receptor density of Nectin-4 was then assessed by flow cytometry upon a LSRFortessa X-20 instrument (BD Biosciences) with Quantibrite phycoerythrin (PE) beads (BD Biosciences Cat No 340495) using an anti-Nectin-4 PE conjugated antibody (RnD Systems Cat No FAB2659) at different time points after treatment (FIG. 2A).

[6] = pemigatinib 0.3 mg/kg oral QD for 10 days
[7] = pemigatinib 1 mg/kg oral QD for 10 days

Compound: CCN1C(=O)N(c2c(F)c(OC)cc(OC)c2F)Cc2cnc3[nH]c(CN4CCOCC4)cc3c21 [pemigatinib, 3-(2,6-difluoro-3,5-dimethoxyphenyl)-1-ethyl-8-(morpholin-4-ylmethyl)-1,3,4,7-tetrahydro-2H-pyrrolo[3′,2′:5,6]pyrido[4,3-d]pyrimidin-2-one]
- phosphorylation of ERK in tumor [1]: decrease phosphorylation of ERK
- therapeutic effect in delaying tumor growth vs vehicle [2, 6]: all the treatments, with the exemption of pemigatinib 0.3 mg/kg, had a therapeutic effect
- therapeutic effect in delaying tumor growth vs vehicle [2, 7]: had a therapeutic effect in delaying tumor growth
- therapeutic effect in delaying tumor growth vs vehicle [3, 6]: only pemigatinib 1 mg/kg treatment had a therapeutic effect
- therapeutic effect in delaying tumor growth vs vehicle [3, 7]: had a therapeutic effect in delaying tumor growth as single agent
- Nectin-4 receptor density in tumor cells [4]: did not induce changes in Nectin-4 receptor density
- Nectin-4 receptor density [5]: did not induce changes in Nectin-4 receptor density
